Source: patent US20140243375A1, “ISOXAZOLINE DERIVATIVES AS INSECTICIDAL COMPOUNDS” (Syngenta Participations AG, priority 2011, published 2014)

The molecules below were run on Thrips tabaci (assay: Thrips tabaci (onion thrips) sunflower leaf disc spray test). Conditions: foliar, 168 h, application rate 200 ppm, sprayed sunflower leaf discs, mixed ages, mortality after 7 days.
Assay type: in vivo
Protocol: This Example illustrates the pesticidal/insecticidal properties of compounds of formula (I). Tests were performed as follows: Thrips Tabaci (Onion Thrips): Sunflower leaf discs were placed on agar in a 24-well microtiter plate and sprayed with test solutions at an application rate of 200 ppm. After drying, the leaf discs were infested with a thrips population of mixed ages. After an incubation period of 7 days, samples were checked for mortality.

| SMILES | pest or weed control at 200 ppm |
| --- | --- |
| Cc1cc(C2=NOC(c3cc(Cl)cc(Cl)c3)(C(F)(F)F)C2)ccc1C(=O)NC1CON(C)C1=O (stereo not drawn) [Compound A01] | ≥ 80% |
| CCN1OCC(NC(=O)c2ccc(C3=NOC(c4cc(Cl)c(Cl)c(Cl)c4)(C(F)(F)F)C3)cc2C)C1=O (stereo not drawn) [Compound A02] | ≥ 80% |
| CCN1OCC(NC(=O)c2ccc(C3=NOC(c4cc(Cl)c(F)c(Cl)c4)(C(F)(F)F)C3)cc2C)C1=O (stereo not drawn) [Compound A04] | ≥ 80% |
| CCN1OCC(NC(=O)c2ccc(C3=NOC(c4cc(Cl)cc(Cl)c4)(C(F)(F)F)C3)cc2C)C1=O (stereo not drawn) [Compound A07] | ≥ 80% |
| CCN1OCC(NC(=O)c2ccc(C3=NOC(c4cc(Cl)cc(Br)c4)(C(F)(F)F)C3)cc2C)C1=O (stereo not drawn) [Compound A10] | ≥ 80% |

Each molecule was assayed on Diabrotica balteata (assay: Diabrotica balteata (corn root worm) L2 larvae test on artificial diet). Conditions: 120 h, application rate 200 ppm (concentration in well 18 ppm), larval mortality and growth regulation after 5 days.
Assay type: in vivo
Protocol: (§1) This Example illustrates the pesticidal/insecticidal properties of compounds of formula (I). Tests were performed as follows: Diabrotica balteata (Corn Root Worm): A 24-well microtiter plate (MTP) with artificial diet was treated with test solutions at an application rate of 200 ppm (concentration in well 18 ppm) by pipetting. After drying, the MTP's were infested with L2 larvae (6-10 per well). After an incubation period of 5 days, samples were checked for larval mortality and growth regulation.

| SMILES | pest or weed control at 200 ppm |
| --- | --- |
| Cc1cc(C2=NOC(c3cc(Cl)cc(Cl)c3)(C(F)(F)F)C2)ccc1C(=O)NC1CON(C)C1=O (stereo not drawn) [Compound A01] | ≥ 80% |
| CCN1OCC(NC(=O)c2ccc(C3=NOC(c4cc(Cl)c(Cl)c(Cl)c4)(C(F)(F)F)C3)cc2C)C1=O (stereo not drawn) [Compound A02] | ≥ 80% |
| CCN1OCC(NC(=O)c2ccc(C3=NOC(c4cc(Cl)c(F)c(Cl)c4)(C(F)(F)F)C3)cc2C)C1=O (stereo not drawn) [Compound A04] | ≥ 80% |
| CCN1OCC(NC(=O)c2ccc(C3=NOC(c4cc(Cl)cc(Cl)c4)(C(F)(F)F)C3)cc2C)C1=O (stereo not drawn) [Compound A07] | ≥ 80% |
| CCN1OCC(NC(=O)c2ccc(C3=NOC(c4cc(Cl)cc(Br)c4)(C(F)(F)F)C3)cc2C)C1=O (stereo not drawn) [Compound A10] | ≥ 80% |

The molecules below were run on Tetranychus urticae (assay: Tetranychus urticae (two-spotted spider mite) bean leaf disc spray test). Conditions: foliar, 192 h, application rate 200 ppm, sprayed bean leaf discs, mixed ages, egg, larval and adult mortality 8 days later.
Assay type: in vivo
Protocol: This Example illustrates the pesticidal/insecticidal properties of compounds of formula (I). Tests were performed as follows: Tetranychus urticae (Two-Spotted Spider Mite): Bean leaf discs on agar in 24-well microtiter plates were sprayed with test solutions at an application rate of 200 ppm. After drying, the leaf discs are infested with mite populations of mixed ages. 8 days later, discs are checked for egg mortality, larval mortality, and adult mortality.

| SMILES | pest or weed control at 200 ppm |
| --- | --- |
| Cc1cc(C2=NOC(c3cc(Cl)cc(Cl)c3)(C(F)(F)F)C2)ccc1C(=O)NC1CON(C)C1=O (stereo not drawn) [Compound A01] | ≥ 80% |
| CCN1OCC(NC(=O)c2ccc(C3=NOC(c4cc(Cl)c(Cl)c(Cl)c4)(C(F)(F)F)C3)cc2C)C1=O (stereo not drawn) [Compound A02] | ≥ 80% |
| CCN1OCC(NC(=O)c2ccc(C3=NOC(c4cc(Cl)c(F)c(Cl)c4)(C(F)(F)F)C3)cc2C)C1=O (stereo not drawn) [Compound A04] | ≥ 80% |
| CCN1OCC(NC(=O)c2ccc(C3=NOC(c4cc(Cl)cc(Cl)c4)(C(F)(F)F)C3)cc2C)C1=O (stereo not drawn) [Compound A07] | ≥ 80% |
| CCN1OCC(NC(=O)c2ccc(C3=NOC(c4cc(Cl)cc(Br)c4)(C(F)(F)F)C3)cc2C)C1=O (stereo not drawn) [Compound A10] | ≥ 80% |

The molecules below were run on Spodoptera littoralis (assay: Spodoptera littoralis (Egyptian cotton leafworm) cotton leaf disc spray test). Conditions: foliar, 72 h, application rate 200 ppm, sprayed cotton leaf discs, mortality, feeding behavior, growth regulation 3 days after treatment.
Assay type: in vivo
Protocol: This Example illustrates the pesticidal/insecticidal properties of compounds of formula (I). Tests were performed as follows: Spodoptera littoralis (Egyptian Cotton Leafworm): Cotton leaf discs were placed on agar in a 24-well microtiter plate and sprayed with test solutions at an application rate of 200 ppm. After drying, the leaf discs were infested with […]. The samples were checked for mortality, feeding behavior, and growth regulation 3 days after treatment (DAT).

| SMILES | pest or weed control at 200 ppm |
| --- | --- |
| Cc1cc(C2=NOC(c3cc(Cl)cc(Cl)c3)(C(F)(F)F)C2)ccc1C(=O)NC1CON(C)C1=O (stereo not drawn) [Compound A01] | ≥ 80% |
| CCN1OCC(NC(=O)c2ccc(C3=NOC(c4cc(Cl)c(Cl)c(Cl)c4)(C(F)(F)F)C3)cc2C)C1=O (stereo not drawn) [Compound A02] | ≥ 80% |
| CCN1OCC(NC(=O)c2ccc(C3=NOC(c4cc(Cl)c(F)c(Cl)c4)(C(F)(F)F)C3)cc2C)C1=O (stereo not drawn) [Compound A04] | ≥ 80% |
| CCN1OCC(NC(=O)c2ccc(C3=NOC(c4cc(Cl)cc(Cl)c4)(C(F)(F)F)C3)cc2C)C1=O (stereo not drawn) [Compound A07] | ≥ 80% |
| CCN1OCC(NC(=O)c2ccc(C3=NOC(c4cc(Cl)cc(Br)c4)(C(F)(F)F)C3)cc2C)C1=O (stereo not drawn) [Compound A10] | ≥ 80% |

Each molecule was assayed on Heliothis virescens (assay: Heliothis virescens (tobacco budworm) egg test on artificial diet). Conditions: 96 h, application rate 200 ppm (concentration in well 18 ppm), eggs on artificial diet, egg mortality, larval mortality, growth regulation after 4 days.
Assay type: in vivo
Protocol: This Example illustrates the pesticidal/insecticidal properties of compounds of formula (I). Tests were performed as follows: Heliothis virescens (Tobacco Budworm): Eggs (0-24 h old) were placed in 24-well microtiter plate on artificial diet and treated with test solutions at an application rate of 200 ppm (concentration in well 18 ppm) by pipetting. After an incubation period of 4 days, samples were checked for egg mortality, larval mortality, and growth regulation.

| SMILES | pest or weed control at 200 ppm |
| --- | --- |
| Cc1cc(C2=NOC(c3cc(Cl)cc(Cl)c3)(C(F)(F)F)C2)ccc1C(=O)NC1CON(C)C1=O (stereo not drawn) [Compound A01] | ≥ 80% |
| CCN1OCC(NC(=O)c2ccc(C3=NOC(c4cc(Cl)c(Cl)c(Cl)c4)(C(F)(F)F)C3)cc2C)C1=O (stereo not drawn) [Compound A02] | ≥ 80% |
| CCN1OCC(NC(=O)c2ccc(C3=NOC(c4cc(Cl)c(F)c(Cl)c4)(C(F)(F)F)C3)cc2C)C1=O (stereo not drawn) [Compound A04] | ≥ 80% |
| CCN1OCC(NC(=O)c2ccc(C3=NOC(c4cc(Cl)cc(Cl)c4)(C(F)(F)F)C3)cc2C)C1=O (stereo not drawn) [Compound A07] | ≥ 80% |
| CCN1OCC(NC(=O)c2ccc(C3=NOC(c4cc(Cl)cc(Br)c4)(C(F)(F)F)C3)cc2C)C1=O (stereo not drawn) [Compound A10] | ≥ 80% |

These molecules were tested on Plutella xylostella (assay: Plutella xylostella (diamond back moth) L2 larvae test on artificial diet). Conditions: 144 h, application rate 200 ppm (concentration in well 18 ppm), larval mortality and growth regulation after 6 days.
Assay type: in vivo
Protocol: as §1, with “Plutella xylostella (Diamond Back Moth):” for “Diabrotica balteata (Corn Root Worm): A”, “(7-12” for “(6-10”, “6” for “5”

| SMILES | pest or weed control at 200 ppm |
| --- | --- |
| Cc1cc(C2=NOC(c3cc(Cl)cc(Cl)c3)(C(F)(F)F)C2)ccc1C(=O)NC1CON(C)C1=O (stereo not drawn) [Compound A01] | ≥ 80% |
| CCN1OCC(NC(=O)c2ccc(C3=NOC(c4cc(Cl)c(Cl)c(Cl)c4)(C(F)(F)F)C3)cc2C)C1=O (stereo not drawn) [Compound A02] | ≥ 80% |
| CCN1OCC(NC(=O)c2ccc(C3=NOC(c4cc(Cl)c(F)c(Cl)c4)(C(F)(F)F)C3)cc2C)C1=O (stereo not drawn) [Compound A04] | ≥ 80% |
| CCN1OCC(NC(=O)c2ccc(C3=NOC(c4cc(Cl)cc(Cl)c4)(C(F)(F)F)C3)cc2C)C1=O (stereo not drawn) [Compound A07] | ≥ 80% |
| CCN1OCC(NC(=O)c2ccc(C3=NOC(c4cc(Cl)cc(Br)c4)(C(F)(F)F)C3)cc2C)C1=O (stereo not drawn) [Compound A10] | ≥ 80% |
